Data on eight molecules can be found in patent US5639887A, “MDR reversal agents” (priority 1995, dated 1997).

Converted amounts (≈) assume the structure as drawn.

The test system of data set [1] is bisantrene-resistant human ovarian carcinoma cells S1-B1-20 (OVCAR-3 subclone). Nature of the data set: Screening assay for reversal agents: Difference Score with/without 20 μM bisantrene. The note with it: alone vs with 20 μM bisantrene, 3 days, difference in % cell survival; for Difference Score at 1 microM: test agent 1 microM; for Difference Score at 10 microM: test agent 10 microM; for Difference Score at 20 microM: test agent 20 microM. It is filed as cell-based. As for the experimental part: Such cells are sorted by a fluorescent activated cell sorter (FACS; Becton Dickinson Model 440).
Cells, prepared by trypsinization, are plated at 20,000 cells/well in media with and without bisantrene. Then, test agents at varying concentrations are added to the cells. […] Completed plates are incubated for 3 days at 37° C. in a moisturized 7% CO2 atmosphere. […] Dye content/well is read at 540 nm in a microtiter reader. Values are electronically processed, % cell survival compared to untreated cells is computed, and the results are expressed as the difference between these values. Experiments are run in the presence of the test agent alone and the test agent in combination with 20 μM bisantrene. The Difference Score between those two experiments is reported below for 3 different concentrations of test agent.

Data set [2] relates to human epidermoid carcinoma KB/8.5. Nature of the data set: In vivo evaluation of MDR-1 reversal agents against human epidermoid carcinoma KB/8.5 implanted SC in athymic nude mice. Set-up: species or system human (tumor in athymic nude mice). Here is the method:
The multiple drug resistant human epidermoid carcinoma KB/8.5 is propagated in medium containing colchicine (10 nanograms/ml) to maintain drug resistance. Colchicine is removed from the medium, for two cell passages, prior to subcutaneous (SC) implant of 8×10^6 KB/8.5 tumor cells into athymic "nude" mice (Harlan Sprague Dawley). […] Individual mouse tumor mass and mean tumor mass for each treatment group is determined on Day +14 and Day +21 of the test period. For each treatment group, the Relative Tumor Growth, RTG, is calculated as follows: [formula]
Statistical analysis of Log Relative Tumor Growth is carried out using the Student t-test. Transformation of the data from absolute mean tumor mass (mgs tumor mass) to Log Relative Tumor Growth prior to statistical analysis has two beneficial effects:
1) it corrects the data for differences in mean tumor mass of the different treatment groups at the start of the test period (Day 0); and
2) the Log transformation of the data more adequately reflects the exponential growth pattern of the SC tumors and makes the use of the Student t-test more appropriate.

The test system of data set [3] is vincristine resistant murine leukemia P388/VCR. Nature of the data set: In vivo evaluation of MDR-1 reversal agents against vincristine resistant murine leukemia P388/VCR implanted IP in CDF1 mice. The conditions noted are these: days 1-7, IP; for % ILS: vs vincristine alone. As for the experimental part: Tumor cell ascites are harvested 5-7 days later. For drug testing, groups of 10-15 CDF1 mice (DBA/2×Balb/cF1 hybrids; Charles River Laboratories, Inc) are injected IP with 0.5 ml of diluted ascitic fluid containing 1×10^6 viable P388/VCR tumor cells. […] Drugs are administered once daily, by the IP, intravenous (IV) or oral route, starting one day after tumor implantation and using a variety of treatment schedules. Mice are weighed periodically, survival is recorded for 30 days post tumor implantation, and Mean survival times are calculated for all groups of mice. Statistical analysis of Mean survival times is carried out using the Student t-test.

Data set [4] is described as follows: Limit of solubility of bisantrene. It is filed as physicochemical. The conditions noted are these: cell culture medium; cell culture maintenance.
Data set [5] has as its system multiple drug resistance tumor cells. The note with it: background, resensitizing agents for treatment of cancer; cited from earlier work.
Setting [6] is: doxorubicin 8 mg/kg IV + compound 25 mg/kg/dose SC at -2 h and +2 h.
[7] abbreviates: doxorubicin 8 mg/kg IV + compound 75 mg/kg/dose SC at -2 h and +2 h.
[8] abbreviates: doxorubicin 8 mg/kg IV + compound 200 mg/kg/dose SC at -2 h and +2 h.
The mark [9] stands for this setting: doxorubicin 8 mg/kg IV + compound 200 mg/kg/dose SC x2.
[10] abbreviates: vincristine 0.2 + compound 6.3 mg/kg.
[11] abbreviates: vincristine 0.2 + compound 25 mg/kg.

For the molecule “2-[6-Cyano-6(3,4-dimethoxyphenyl)-6-[(4-methylphenyl)-thio]hexyl]-1,2,3,4-tetrahydo-5-methoxy-7-isoquinoline trifluoromethanesulfonic acid [Example 102]”, in data set [1], the “Difference Score at 1 microM” value was determined as 30, the “Difference Score at 10 microM” value is listed as 82 and the “Difference Score at 20 microM” value came to 82.
With “2-[7-(4-Fluorophenyl)-7-[(4-methylphenyl)thio]heptyl]-1,2,3,4-tetrahydro-6,7-isoquinoline [Example 95]”, in data set [1], the “Difference Score at 1 microM” value is on record as 28, the “Difference Score at 10 microM” value worked out at 71 and the “Difference Score at 20 microM” value turned out to be 57.
On to `COc1ccc(C(CCCCCN2CCc3cc(OC)c(OC)cc3C2)Sc2ccc(C)cc2)cc1OC` (centres unmarked) [Example 41, 2-[6-(3,4-Dimethoxyphenvl]-6-[(4-methylphenyl)thio]-hexyl]-1,2,3,4-tetrahydro-6,7-dimethoxyisoquinoline], for which the “Relative Tumor Growth Day 21” value worked out at 6.15 in data set [2] (setting [6]); 8.54 in data set [2] (setting [7]); 4.57 in data set [2] (setting [8]); 7.27 in data set [2] (doxorubicin 8 mg/kg IV + compound […] SC at -2 h and +2 h). For the same molecule, the “toxicity remark (tox), Day 14” value in data set [2] (setting [9]) is recorded as “tox”. In addition, the “toxicity remark (tox), Day 21” value in data set [2] (setting [9]) is given as “tox”. For the same molecule, the MST in data set [3] (setting [10]) came out at 14.1 days. In data set [3] (setting [10]), the “% ILS” value was “+13%”.
In the case of `COc1ccc2c(c1)CCN(CCCCCC(Sc1ccc(C)cc1)c1ccc(OC)c(OC)c1)C2` (centres unmarked) [Example 46, 2-[6-(3,4-Dimethoxyphenyl)-6-[(4-methylphenyl)thio]-hexyl]-1,2,3,4-tetrahydro-6-methoxyisoquinoline], the “Relative Tumor Growth Day 21” value was determined as 9.65 in data set [2] (setting [6]); 8.83 in data set [2] (doxorubicin 8 mg/kg IV + compound 50 mg/kg/dose SC at -2 h and +2 h); 10.23 in data set [2] (setting [7]); 10.91 in data set [2] (doxorubicin 8 mg/kg IV + compound 100 mg/kg/dose SC at -2 h and +2 h); 8.99 in data set [2] (setting [8]). For the same molecule, in data set [3] (setting [11]), the MST came to 16.7 days. In addition, the “% ILS” value in data set [3] (setting [11]) was “+36%”.
On to `COc1ccc(C(C#N)(CCCCCN2Cc3cc(OC)c(OC)cc3C2)SC2CCCCC2)cc1OC` (stereo not drawn) [Example 86, α-(Cyclohexylthio)-α-(3,4-dimethoxyphenyl)-1,3-dihydro5,6-dimethoxy-2(1H)-isoindoleheptane nitrile], for which, in data set [1], the “Difference Score at 1 microM” value worked out at 83, the “Difference Score at 10 microM” value was 77 and the “Difference Score at 20 microM” value turned out to be 29.
For `COc1ccc(C(C#N)(CCCCCN2Cc3cc(OC)c(OC)cc3C2)SC2CCCCC2)cc1OC.Cl` (stereo not drawn) [Example 120, α-(Cyclohexylthio)-α-(3,4-dimethoxyphenyl)-1,3-dihydro 5,6-dimethoxy-2(1H)-isoindoleheptanenitrile hydrochloride] the same measures were 83, 59 and 1.
Usually solubility stands for how much of the substance goes into solution per volume. A low value points to a poorly soluble substance. `C(=N\NC1=NCCN1)/c1c2ccccc2c(/C=N/NC2=NCCN2)c2ccccc12` [bisantrene] displayed a solubility in data set [4] of 20 µM (≈ 7.97 µg/mL).
For `CN1CCN(CCCN2c3ccccc3Sc3ccc(C(F)(F)F)cc32)CC1` [trifluoroperizine], the “toxic side effects in the clinic” value in data set [5] was “limited by toxic side effects”.
